# In patent EP4631968A1, “PEPTIDE FOR CARTILAGE REGENERATION, AND USES THEREOF” (Caregen Co., Ltd., priority 2022, dated 2024):
# Where no end group is shown, it is not given here.
# Tests used:
# Type in all cases: cell-based
# [1] = test system: human adipose-derived mesenchymal stem cells (AD-MSC); experiment: Cell morphology changes, SRB staining; details: different concentrations, after 7 days
# Method: Additionally, for SRB staining, after suctioning the medium from the plate, 60 µL of 3.7 % formalin was added to the 96-well plate to be stained and fixed for 1 minute. After suctioning 3.7 % formalin, 70 µL of SRB staining solution (sulforhodamine B sodium salt (sigma, S9012): 0.2 g in 100 mL DDW) was added and stained. The plate was covered with aluminum foil, blocked from light, and incubated overnight at room temperature. After washing with 100 µL of 1 % acetic acid using a multi-pipette, it was dried and observed under a microscope.
# [2] = test system: human adipose-derived mesenchymal stem cells (AD-MSC); experiment: Cytotoxicity, CCK-8 assay; details: different concentrations, after 7 days, 450 nm
# [3] = test system: human-derived chondrocytes (C28/I2, human chondrocyte cell line); experiment: Cytotoxicity, CCK-8 assay; details: C28/I2 cells, different concentrations, after 3 days, 450 nm
# Method: The cytotoxicity of Peptide-1 or Peptide-2 upon addition to human-derived chondrocytes (C28/I2, human chondrocyte cell line) was analyzed using a CCK-8 assay.
# Specifically, human-derived chondrocytes were seeded in a 96-well plate at a density of 3 × 10^3 cells/well and cultured in DMEM medium (cat. 11995-065, Gibco) for 24 hours. […] Meanwhile, as a negative control group, an experimental group to which the peptide was not added was used.
Substance,change in cell morphology in SRB staining [1],toxicity (CCK-8 activity) [2],toxicity (CCK-8 activity) [3]
"KVSYAAEKNRKNY [Peptide-1, KVSYAAEKNRKNY]",did not show any change in cell morphology,did not exhibit toxicity,did not exhibit toxicity
"SSFYF [Peptide-2, SSFYF]",did not show any change in cell morphology,did not exhibit toxicity,did not exhibit toxicity
